# Data: patent US20090012018A1, “Inhibition of pancretic cancer cell growth” (priority 2004, published 2009)
# “Also recorded” adds a separate entry of the source.
# Columns and labels:
# BxPC3 = assay: Sensitivity of pancreatic adenocarcinoma cells to drug treatment (cell proliferation, apoptosis); type: cell-based, human
# Procedure: (§1) Human pancreatic adenocarcinoma cell lines HPAC, SW1990, Mpanc-96, SU86.86, PL45, Panc10.05 Panc2.03 and Panc8.13 were obtained from ATCC; cell lines MiaPaCa2, Panc1, CFPAC-1, HPAFII, Capan-2, AsPC1, Hs766T and BxPC3 were a gift from Schering Plough; cell lines COLO357, L3.3, L3.6 pl and L3.6 sl were a gift from I. Fidler; cell lines Panc3.27, Panc4.21, Panc5.04, Panc2.13, Panc1.28 and Panc6.03 were a gift from E. Jaffee. BxPC3 and the Panc cell lines were grown in RPMI medium (Gibco) supplemented with 10% FBS, L-glutamine and penicillin/streptomycin; medium for the Panc cells was also supplemented with insulin-transferrin-selenium (Gibco). The CFPAC-1, Panc1, AsPC1, Hs766T, L3.6sl and L3.6pl were grown in DMEM without phenol red (CellGro), supplemented with 10% FBS. Derivation and culture of PDC cells was as described (Schreiber et al., Gastroenterology, 127:250-260, 2004).
# (§2) The small chemical inhibitors were used at the following final concentrations: up to 250 μM for sulindac (Sigma), up to 300 μM for sulindac sulfone (Calbiochem or ICN), NS-398 up to 25 μM (Calbiochem), sodium salicylate up to 100 μM (Calbiochem). […] To test for drug sensitivity, the cells were plated in control medium or in medium containing the drug of interest for 2 to 5 days. The culture media was changed every 48 hrs. The images showing cell morphology were taken with a Nikon inverted microscope.
# (§3) Cells were pulsed with 10 μM BrdU for two hours and then harvested and fixed. BrdU incorporation was detected with a fluorescein isothiocyanate conjugated anti-BrdU antibody (BD Biosciences) and total DNA was stained with 7-AAD (BD Biosciences). FACS analysis was performed according to the BD Biosciences BrdU flow kit manual. Cells in S-phase were defined as the BrdU-positive cell population with a DNA content between 2N and 4N. According to the manual, apoptotic cells were defined as a subpopulation of G0/G1 cells with DNA content lower than the diploid amount (<2N).
# L3.6sl = assay: as above; type: cell-based, human
# Procedure: as §1, §2, §3
# Panc4.21 = assay: as above; type: cell-based, human
# Procedure: as §1, §2, §3
# [1] = test system: pancreatic adenocarcinoma cell lines; assay: Growth, BrdU incorporation and apoptosis of pancreatic cancer cell lines (results stated for the lines together); type: cell-based, human; conditions: 7/13 lines
# Procedure: as §2, §3
# The cell lines were plated the day prior to transfection at a density of 8×10^4 cells/well in a 24-well plate. The luciferase reporter constructs used included: Top-Flash and Fop-Flash containing multimerized Tcf-Lef binding sites or nonfunctional sites, respectively; TK-Luc (Promega); and GliBS containing 8×Gli binding sites upstream of the TK minimal promoter (Sasaki et al., Development, 124:1313-1322, 1997). In different experiments, the reporter constructs were co-transfected with an expression vector containing a dominant-negative form of Lef1 or the endogenous Wnt inhibitor Icat. The dominant negative Lef1 (gift from S. Pleasure) was generated by cloning the 63 amino acid N-terminal deleted form of Lef1 into the pEF5 plasmid. This construct also contains an IRES-EGFP cassette. The cDNA coding for the Icat protein was cloned into pIRES2-EGFP (BD Biosciences Clontech). Transfections were performed using the Effectene transfection reagent […] according to the user's manual. A Renilla luciferase plasmid (Promega) was included to control for transfection efficiency. Transfected cells were cultured in medium containing serum. […] Cells were harvested 24 hrs after transfection, and luciferase activity was assayed using the Dual Luciferase kit (Promega), according to the user's manual.
# Small interfering RNA (siRNA) oligonucleotides against β-catenin containing two thymidine residues (dTdT) at the 3′ end of the sequence (5′-[…] […] T-3′ set forth as SEQ ID NO:57) were used for treatment of cancer cells as described (Verma et al., Clin Cancer Res, 9:1291-1300, 2003). The GLI1 siRNA (sense 5′-[…] […]-3′ set forth as SEQ ID NO:58) was also used as described (Sanchez et al., Proc Natl Acad Sci USA 101:12561-12566, 2004). Small interfering RNA against GLI2 was ordered against the target sequence 5-[…] […] A-3′, set forth as SEQ ID NO:59). […] Cells were transfected with oligofectamine (Invitrogen) according to the user's manual, with a final siRNA concentration of 100 or 300 nM. Transfected cells were incubated for 48 hrs before harvesting.
# [2] = test system: Hedgehog signaling (GliBS-luc reporter); assay: GliBS-luciferase reporter assay; type: cell-based, human; conditions: CFPAC-1, BxPC3, L3.6sl, Panc4.21; cyclopamine 10 μM, sulindac 250 μM; FIG. 4B
# Procedure: The cell lines were plated the day prior to transfection at a density of 8×10^4 cells/well in a 24-well plate. The luciferase reporter constructs used included: Top-Flash and Fop-Flash containing multimerized Tcf-Lef binding sites or nonfunctional sites, respectively; TK-Luc (Promega); and GliBS containing 8×Gli binding sites upstream of the TK minimal promoter (Sasaki et al., Development, 124:1313-1322, 1997). In different experiments, the reporter constructs were co-transfected with an expression vector containing a dominant-negative form of Lef1 or the endogenous Wnt inhibitor Icat. The dominant negative Lef1 (gift from S. Pleasure) was generated by cloning the 63 amino acid N-terminal deleted form of Lef1 into the pEF5 plasmid. This construct also contains an IRES-EGFP cassette. The cDNA coding for the Icat protein was cloned into pIRES2-EGFP (BD Biosciences Clontech). Transfections were performed using the Effectene transfection reagent […] according to the user's manual. A Renilla luciferase plasmid (Promega) was included to control for transfection efficiency. Transfected cells were cultured in medium containing serum. […] Cells were harvested 24 hrs after transfection, and luciferase activity was assayed using the Dual Luciferase kit (Promega), according to the user's manual. […]
# BxPC3 tumors = assay: Subcutaneous tumor treatment in nude mice; type: in vivo, CD-1 nude mice
# Procedure: (§4) A total of 0.1 ml Hanks' balanced salt solution and matrigel (1:1) containing 2×10^6 cells was injected subcutaneously into CD-1 nude mice (Charles River Laboratories). Tumors were grown for 4 days to a minimum volume of 125 mm^3. Treatment was initiated simultaneously for all subjects. Mice were injected with vector alone (peanut oil: PBS 7:3 v/v) or with a sulindac solution (3 mg/mouse/day) daily for 5 days. Sulindac sulfone was administered orally (1.5 mg/mouse/day). At the end of the treatment period, tumors were excised from mice, weighed and photographed.
# CFPAC-1 tumors = assay: Subcutaneous tumor treatment in nude mice; type: in vivo, CD-1 nude mice; conditions: treated for five days vs controls, sulindac 3 mg/mouse/day injected, sulindac sulfone 1.5 mg/mouse/day orally
# Procedure: as §4
# Tcf4 = assay: Immunofluorescence of Tcf expression in pancreatic cancer cells; type: cell-based, human; conditions: cyclopamine for 24 hrs (FIG. 4C) or sulindac-treated
# Tcf1 = assay: as above; type: cell-based, human; conditions: pancreatic cancer cells (Panc4.21); cyclopamine for 24 hrs (FIG. 4C) or sulindac-treated
# [3] = reduction in cell proliferation
structure (smiles),measurement,setting,value
CC1=C(CC(=O)O)c2cc(F)ccc2/C1=C\c1ccc([S+](C)[O-])cc1 (stereo not shown) [sulindac],induced apoptosis,BxPC3; concentration dependent,two to four-fold
same,Sulindac Sensitivity,BxPC3; [3],Positive
same,cell growth,"BxPC3; vs untreated controls, FIG. 3B",strongly inhibits growth
same,induced apoptosis,L3.6sl; concentration dependent,two to four-fold
same,Sulindac Sensitivity,L3.6sl; [3],Positive
same,cell growth,"L3.6sl; vs untreated controls, FIG. 3B",strongly inhibits growth
same,induced apoptosis,Panc4.21; concentration dependent,two to four-fold
same,Sulindac Sensitivity,Panc4.21; [3],Positive
same,cell growth,"Panc4.21; vs untreated controls, FIG. 3B",strongly inhibits growth
same,lines tested with measurable reduction in cell proliferation,[1],54%
same,activity of the GliBS-luc Hedgehog reporter,[2],unaffected; also recorded: had no affect
same,reduction in tumor volume compared to untreated samples,BxPC3 tumors; sulindac 3 mg/mouse/day injected daily for 5 days,80%
same,tumor growth,"BxPC3 tumors; treated for five days vs untreated controls, sulindac 3 mg/mouse/day injected, sulindac sulfone 1.5 mg/mouse/day orally",strongly reduced
same,"tumor growth (volume, size)",CFPAC-1 tumors,largely unaffected; also recorded: No reduction
same,Tcf4 expression,Tcf4,reduced
same,Tcf1 expression,Tcf1,reduced
